Measurements reported in US20250154226A1, “LONG-ACTING GLP-1/GLP-2 DUAL AGONIST COMPOUND” (CHENGDU AODA BIOTECHNOLOGY CO., LTD, priority 2022, published 2025).
Starred links: 1 amine or outer side, 2 acyl side, 3 side chain; linkers in the order of their positions; H or OH if unused. Non-standard residues stand in square brackets, D forms with d. Residues, ends and D or L forms follow the SMILES beside them. Groups on a side chain read outwards from the residue. *: point of attachment. C18 diacid = O=C(O)CCCCCCCCCCCCCCCCC(=O)*; γGlu = O=C(O)[C@H](CCC(=O)[*:2])N[*:1]; AEEEA = NCCOCCOCCOCC(=O)O; AEEA = NCCOCCOCC(=O)O; Aib = CC(C)(N)C(=O)O; AEA = NCCOCC(=O)O

Tests used:
GLP-2R = target: T1, GLP-2R (Homo sapiens, UniProt O95838); assay: Determination of GLP-2 activity: cAMP chemiluminescence (RLU) in CHO-K1 cell line stably expressing GLP-2R; assay type: cell-based; conditions: read-out: GLP-2 activity [EC50 (nmol)]
T1 construct: expressed in transfected cells; host or cells: CHO-K1
T1 sequence (O95838 1-553): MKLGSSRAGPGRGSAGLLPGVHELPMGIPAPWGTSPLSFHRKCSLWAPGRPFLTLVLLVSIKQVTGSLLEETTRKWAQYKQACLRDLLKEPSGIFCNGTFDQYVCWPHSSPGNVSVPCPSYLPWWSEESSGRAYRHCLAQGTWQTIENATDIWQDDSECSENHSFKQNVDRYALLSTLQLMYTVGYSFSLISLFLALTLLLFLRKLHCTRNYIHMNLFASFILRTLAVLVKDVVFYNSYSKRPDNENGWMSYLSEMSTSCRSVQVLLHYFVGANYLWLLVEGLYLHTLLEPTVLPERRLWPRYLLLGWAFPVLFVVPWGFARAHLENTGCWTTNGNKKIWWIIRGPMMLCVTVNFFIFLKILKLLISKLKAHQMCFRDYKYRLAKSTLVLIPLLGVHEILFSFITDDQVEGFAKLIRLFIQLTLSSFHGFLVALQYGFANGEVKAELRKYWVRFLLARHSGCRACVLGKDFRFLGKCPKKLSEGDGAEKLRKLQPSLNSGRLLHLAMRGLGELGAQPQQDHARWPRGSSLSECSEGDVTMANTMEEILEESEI
Experimental: (§1) GLP-2R, under the stimulation of its specific agonist, can activate the intracellular adenylate cyclase pathway, and increase the level of cAMP, finally leading to the generation and release of insulin. The stimulation of the cell lines stably transfected with […] by the agonist to be tested can lead to rapid increase in the intracellular cAMP level, and the relative light units (RLUs) after stimulating the cells at each dose are determined by chemiluminescence method to calculate the EC50 of the agonist. This method for determining activity is commonly used for GLP-2 receptor agonist activity analysis at home and abroad.
CHO-K1 cell line stably expressing GLP-2R was stimulated with the agonist at different concentrations. The EC50 value of the agonist was calculated by determining the relative light units after stimulating the cells at each dose.

GLP-1R = target: T2, GLP-1R (Homo sapiens, UniProt P43220); assay: Determination of GLP-1 activity: cAMP chemiluminescence (RLU) in CHO-K1 cell line stably expressing GLP-1R; assay type: cell-based; conditions: read-out: GLP-1 activity [EC50 (pmol)]
T2 construct: expressed in transfected cells; host or cells: CHO-K1
Experimental: as §1, with “GLP-1R,” for “GLP-2R,”, “GLP-1” for “GLP-2”
CHO-K1 cell line stably expressing GLP-1R was stimulated with the agonist at different concentrations. The EC50 value of the agonist was calculated by determining the relative light units after stimulating the cells at each dose.

[1] = Preliminary determination of pharmacokinetic properties in cynomolgus monkeys; assay type: in vivo; conditions: cynomolgus monkey; male cynomolgus monkeys; subcutaneous (SC) 0.1 mg/kg; plasma, LC-MS
Experimental: The test animals were cynomolgus monkeys, two male cynomolgus monkeys in each compound group, and the drug was subcutaneously administered at 0.1 mg/kg. The blood was collected intravenously before (0 h) the administration, and 1 h, 2 h, 3 h, 4 h, 8 h, 12 h, 18 h, 24 h, 48 h, 96 h, 144 h, and 168 h after the administration of the compounds, and then centrifuged to isolate plasma samples.

T2 sequence (P43220 24-463, species assumed): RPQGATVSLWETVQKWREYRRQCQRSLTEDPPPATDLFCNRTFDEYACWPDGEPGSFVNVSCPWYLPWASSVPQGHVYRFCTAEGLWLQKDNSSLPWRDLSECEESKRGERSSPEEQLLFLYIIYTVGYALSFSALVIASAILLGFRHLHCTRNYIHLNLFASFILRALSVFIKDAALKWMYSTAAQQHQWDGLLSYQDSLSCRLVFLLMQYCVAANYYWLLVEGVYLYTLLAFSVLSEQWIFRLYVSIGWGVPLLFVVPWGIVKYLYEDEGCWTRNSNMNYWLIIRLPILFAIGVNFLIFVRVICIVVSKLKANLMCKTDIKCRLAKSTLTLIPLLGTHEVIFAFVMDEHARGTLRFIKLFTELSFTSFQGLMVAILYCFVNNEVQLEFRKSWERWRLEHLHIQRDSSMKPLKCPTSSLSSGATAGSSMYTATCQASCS

Row | SMILES | EC50 (GLP-2R) [nM] | EC50 (GLP-1R) [nM] | half-life [1] [h]
1 | CC[C@H](C)[C@H](NC(=O)[C@H](Cc1ccccc1)NC(=O)[C@H](CC(=O)O)NC(=O)[C@H](CCCNC(=N)N)NC(=O)[C@H](C)NC(=O)[C@H](C)NC(=O)[C@H](CCC(N)=O)NC(=O)[C@H](CCCCNC(=O)COCCOCCNC(=O)CC[C@H](NC(=O)CCCCCCCCCCCCCCCCC(=O)O)C(=O)O)NC(=O)[C@H](CC(=O)O)NC(=O)[C@H](CC(C)C)NC(=O)[C@@H](NC(=O)[C@@H](NC(=O)[C@H](C)NC(=O)[C@H](CC(C)C)NC(=O)[C@H](CCC(=O)O)NC(=O)[C@H](CO)NC(=O)[C@@H](NC(=O)[C@H](Cc1ccccc1)NC(=O)[C@H](CO)NC(=O)CNC(=O)[C@H](CCC(=O)O)NC(=O)C(C)(C)NC(=O)[C@@H](N)Cc1c[nH]cn1)[C@@H](C)O)[C@@H](C)O)[C@@H](C)CC)C(=O)N[C@@H](C)C(=O)N[C@@H](Cc1c[nH]c2ccccc12)C(=O)N[C@@H](CC(C)C)C(=O)N[C@H](C(=O)N[C@@H](CCC(N)=O)C(=O)N[C@@H](Cc1c[nH]cn1)C(=O)N[C@@H](CCCCN)C(=O)N[C@H](C(=O)N[C@H](C(=O)N[C@@H](CC(=O)O)C(N)=O)[C@@H](C)O)[C@@H](C)CC)[C@@H](C)CC [Compound 3, His-Aib-Glu-Gly-Ser-Phe-Thr-Ser-Glu-Leu-Ala-Thr-Ile-Leu-Asp-Lys(AEEA-γGlu-octadecanedioic acid)-Gln-Ala-Ala-Arg-Asp-Phe-Ile-Ala-Trp-Leu-Ile-Gln-His-Lys-Ile-Thr-Asp-NH2] (H-H[Aib]EGSFTSELATILDK([AEEA-γGlu-C18 diacid])QAARDFIAWLIQHKITD-NH2) | 4.7 | 0.0601 | 
2 | CC[C@H](C)[C@H](NC(=O)[C@H](Cc1ccccc1)NC(=O)[C@H](CC(=O)O)NC(=O)[C@H](CCCNC(=N)N)NC(=O)[C@H](C)NC(=O)[C@H](C)NC(=O)[C@H](CCC(N)=O)NC(=O)[C@H](CCCCNC(=O)COCCOCCOCCNC(=O)CC[C@H](NC(=O)CCCCCCCCCCCCCCCCC(=O)O)C(=O)O)NC(=O)[C@H](CC(=O)O)NC(=O)[C@H](CC(C)C)NC(=O)[C@@H](NC(=O)[C@@H](NC(=O)[C@H](C)NC(=O)[C@H](CC(C)C)NC(=O)[C@H](CCC(=O)O)NC(=O)[C@H](CO)NC(=O)[C@@H](NC(=O)[C@H](Cc1ccccc1)NC(=O)[C@H](CO)NC(=O)CNC(=O)[C@H](CCC(=O)O)NC(=O)C(C)(C)NC(=O)[C@@H](N)Cc1c[nH]cn1)[C@@H](C)O)[C@@H](C)O)[C@@H](C)CC)C(=O)N[C@@H](C)C(=O)N[C@@H](Cc1c[nH]c2ccccc12)C(=O)N[C@@H](CC(C)C)C(=O)N[C@H](C(=O)N[C@@H](CCC(N)=O)C(=O)N[C@@H](Cc1c[nH]cn1)C(=O)N[C@@H](CCCCN)C(=O)N[C@H](C(=O)N[C@H](C(=O)N[C@@H](CC(=O)O)C(N)=O)[C@@H](C)O)[C@@H](C)CC)[C@@H](C)CC [Compound 4, His-Aib-Glu-Gly-Ser-Phe-Thr-Ser-Glu-Leu-Ala-Thr-Ile-Leu-Asp-Lys(PEG3CH2CO-γGlu-octadecanedioic acid)-Gln-Ala-Ala-Arg-Asp-Phe-Ile-Ala-Trp-Leu-Ile-Gln-His-Lys-Ile-Thr-Asp-NH2] (H-H[Aib]EGSFTSELATILDK([AEEEA-γGlu-C18 diacid])QAARDFIAWLIQHKITD-NH2; N-terminus assumed) |  |  | 59.2
3 | CC[C@H](C)[C@H](NC(=O)[C@H](Cc1ccccc1)NC(=O)[C@H](CC(=O)O)NC(=O)[C@H](CCCNC(=N)N)NC(=O)[C@H](C)NC(=O)[C@H](C)NC(=O)[C@H](CCC(N)=O)NC(=O)[C@H](CCCCNC(=O)CC[C@H](NC(=O)CCCCCCCCCCCCCCCCC(=O)O)C(=O)O)NC(=O)[C@H](CC(=O)O)NC(=O)[C@H](CC(C)C)NC(=O)[C@@H](NC(=O)[C@@H](NC(=O)[C@H](C)NC(=O)[C@H](CC(C)C)NC(=O)[C@H](CCC(=O)O)NC(=O)[C@H](CO)NC(=O)[C@@H](NC(=O)[C@H](Cc1ccccc1)NC(=O)[C@H](CO)NC(=O)CNC(=O)[C@H](CCC(=O)O)NC(=O)C(C)(C)NC(=O)[C@@H](N)Cc1c[nH]cn1)[C@@H](C)O)[C@@H](C)O)[C@@H](C)CC)C(=O)N[C@@H](C)C(=O)N[C@@H](Cc1c[nH]c2ccccc12)C(=O)N[C@@H](CC(C)C)C(=O)N[C@H](C(=O)N[C@@H](CCC(N)=O)C(=O)N[C@@H](Cc1c[nH]cn1)C(=O)N[C@@H](CCCCN)C(=O)N[C@H](C(=O)N[C@H](C(=O)N[C@@H](CC(=O)O)C(N)=O)[C@@H](C)O)[C@@H](C)CC)[C@@H](C)CC [Compound 1, His-Aib-Glu-Gly-Ser-Phe-Thr-Ser-Glu-Leu-Ala-Thr-Ile-Leu-Asp-Lys(γGlu-octadecanedioic acid-Gln-Ala-Ala-Arg-Asp-Phe-Ile-Ala-Trp-Leu-Ile-Gln-His-Lys-Ile-Thr-Asp-NH2] (H-H[Aib]EGSFTSELATILDK([γGlu-C18 diacid])QAARDFIAWLIQHKITD-NH2) | 6.04 | 0.0947 | 
4 | CC[C@H](C)[C@H](NC(=O)[C@H](Cc1ccccc1)NC(=O)[C@H](CC(=O)O)NC(=O)[C@H](CCCNC(=N)N)NC(=O)[C@H](C)NC(=O)[C@H](C)NC(=O)[C@H](CCC(N)=O)NC(=O)[C@H](CCCCNC(=O)COCCNC(=O)CC[C@H](NC(=O)CCCCCCCCCCCCCCCCC(=O)O)C(=O)O)NC(=O)[C@H](CC(=O)O)NC(=O)[C@H](CC(C)C)NC(=O)[C@@H](NC(=O)[C@@H](NC(=O)[C@H](C)NC(=O)[C@H](CC(C)C)NC(=O)[C@H](CCC(=O)O)NC(=O)[C@H](CO)NC(=O)[C@@H](NC(=O)[C@H](Cc1ccccc1)NC(=O)[C@H](CO)NC(=O)CNC(=O)[C@H](CCC(=O)O)NC(=O)C(C)(C)NC(=O)[C@@H](N)Cc1c[nH]cn1)[C@@H](C)O)[C@@H](C)O)[C@@H](C)CC)C(=O)N[C@@H](C)C(=O)N[C@@H](Cc1c[nH]c2ccccc12)C(=O)N[C@@H](CC(C)C)C(=O)N[C@H](C(=O)N[C@@H](CCC(N)=O)C(=O)N[C@@H](Cc1c[nH]cn1)C(=O)N[C@@H](CCCCN)C(=O)N[C@H](C(=O)N[C@H](C(=O)N[C@@H](CC(=O)O)C(N)=O)[C@@H](C)O)[C@@H](C)CC)[C@@H](C)CC [Compound 2, His-Aib-Glu-Gly-Ser-Phe-Thr-Ser-Glu-Leu-Ala-Thr-Ile-Leu-Asp-Lys(PEG1CH2CO-γGlu-octadecanedioic acid)-Gln-Ala-Ala-Arg-Asp-Phe-Ile-Ala-Trp-Leu-Ile-Gln-His-Lys-Ile-Thr-Asp-NH2] (H-H[Aib]EGSFTSELATILDK([AEA-γGlu-C18 diacid])QAARDFIAWLIQHKITD-NH2; N-terminus assumed) | 5.51 | 0.0686 | 
